Measurements: patent US8629144B2, “Polymorphic and hydrate forms, salts and process for preparing 6-{difluoro[6-(1-methyl-1H-pyrazol-4-yl)[1,2,4]triazolo[4,3-b]pyridazin-3-yl]methyl}quinoline” (Janssen Pharmaceutica NV, priority 2007, dated 2014)
Several values for one entry are separate records, joined by “and”; a condition that tells them apart may be missing. Equal values may be shown once. Where a name gives a salt, the structure may show the parent alone.

Key:
[1] = system: U87MG tumors; test: U87MG glioblastoma tumour xenograft model; assay type: in vivo, athymic nude mice; details: for Decrease of mean tumor volume: Day 12, p<0.01
Procedure: The U87MG glioblastoma cell line (Piedmont Research Center LLC) expresses the c-Met receptor and responds to […] (HGF). This study investigated whether treatment with an inhibitor of c-Met is efficacious against the U87MG glioblastoma tumor xenograft model. This study utilized a tumor growth inhibition (TGI) assay to test per os (p.o.) compound monotherapy in groups of fifteen nude mice. A control group was treated with vehicle, 20% Hydroxypropyl Beta-Cyclodextrin (HPBCD). All treatments began on Day 1 (D1) in mice bearing established subcutaneous (s.c.) U87MG tumors.
Female athymic nude mice (Harlan) were 10-11 weeks old with a BW range of 18.1-25.0 g on D1 of the study. The animals were fed ad libitum water (reverse osmosis, 1 ppm Cl) and NIH 31 Modified and Irradiated Lab Diet® consisting of 18.0% crude protein, 5.0% crude fat, and 5.0% crude fiber. The mice were housed on irradiated ALPHA-Dri® bed-o-cobs® Laboratory Animal Bedding in static microisolators on a 12-hour light cycle at 21-22° C. (70-72° F.) and 40-60% humidity. All animals were housed in a Laboratory Animal Medicine facility that is fully accredited by the American Association for Assessment and Accreditation of Laboratory Animal Care (AAALAC). All procedures involving animals were conducted in compliance with the NIH Guide for the Care and Use of Laboratory Animals and all protocols were approved by an Internal Animal Care and Use Committee (IACUC).
Xenografts were initiated from U87MG human glioblastoma tumor fragments maintained by serial transplantation in athymic nude mice. Each test mouse received a subcutaneous U87MG tumor fragment (1 mm^3) implanted in the right flank, and the growth of tumors was monitored as the average size approached 200 mm^3. Twelve days later, on Day 1 of the study, the animals were sorted into 4 groups (n=12-15 mice/group) with individual tumor volumes ranging from 172-352 mm^3 and group mean tumor volumes of 216 mm^3. Tumor volume was calculated using the formula: […]
Dosing solutions of compounds of the present invention were prepared fresh weekly in a vehicle consisting of 20% Hydroxypropyl Beta-Cyclodextrin (HPBCD) in water. In all groups, the dosing volume of 0.2 mL/20-g mouse was scaled to the body weight of each animal. Doses were given to allow for the HCl salt form of the compound.
TGI was calculated from the difference between the median tumor volumes of vehicle-treated and drug-treated mice, expressed as a percentage of the median tumor volume of the vehicle-treated control group, by the following relation:
The MTV (n) is defined as the median tumor volume (MTV) for the number of animals, n, remaining in the study on that day.
Animals were weighed daily for the first five days of the study and then twice weekly. The mice were examined frequently for overt signs of any adverse, drug-related side effects, and clinical signs of toxicity were recorded when observed. Acceptable toxicity is defined as a group mean body-weight (BW) loss of less than 20% during the study, and not more than one treatment-related (TR) death among ten animals. A death is classified as TR if it is attributable to treatment side effects as evidenced by clinical signs and/or necropsy, or due to unknown causes during the dosing period or within 10 days of the last dose. A death is classified as non treatment-related (NTR) if there is no evidence that the death was related to drug side effects. […]

[2] = system: S114 tumors; test: S114 tumor model; assay type: in vivo, athymic nude mice; details: 100 mg/kg p.o. q.d., four consecutive days
Procedure: Female athymic nude mice (CD-1, nu/nu, 9-10 weeks old) were obtained from Charles River Laboratories (Wilmington, Mass.) and were maintained according to NIH standards. All mice were group housed (5 mice/cage) under clean-room conditions in sterile micro-isolator cages on a 12-hour light/dark cycle in a room maintained at 21-22° C. and 40-50% humidity. Mice were fed irradiated standard rodent diet and water ad libitum. All animals were housed in a Laboratory Animal Medicine facility that is fully accredited by the American Association for Assessment and Accreditation of Laboratory Animal Care (AAALAC). All procedures involving animals were conducted in compliance with the NIH Guide for the Care and Use of Laboratory Animals and all protocols were approved by an Internal Animal Care and Use Committee (IACUC).
The murine NIH 3T3 derived cell line S114, which has been engineered to over-express both […] (HGF) and the human c-Met receptor, was propagated in DMEM media (Life Technologies, Bethesda, Md.). Immediately prior to injection, cells were washed counted and resuspended in PBS. Female athymic nude mice weighing no less than 20-21 grams were inoculated subcutaneously in the left inguinal region of the thigh with 5×10^6 cells in a delivery volume of 0.1 mL. Tumors were allowed to grow to for five days.
Mice were dosed orally at 100 mg/kg compound in 20% HPBCD or with vehicle (20% HPBCD, control group). Dosing was continued for 4 consecutive days. Compounds of the invention were prepared fresh daily as a clear solution in 20% HPBCD and administered as described above. Body weight was measured at the end of the study and a loss of body weight >10% was used as an indication of lack of compound tolerability. Unacceptable toxicity was defined as body weight loss >20% during the study. Mice were closely examined daily at each dose for overt clinical signs of adverse, drug-related side effects.
On the day of study termination, a final tumor volume and final body weight were obtained on each animal. […]

[3] = molecular target: T1, c-Met kinase (Homo sapiens, UniProt P08581); test: c-Met autophosphorylation assay with radioactive ATP; assay type: biochemical; details: [33P]-γ-ATP, 60 min room temperature, read-out: IC50 for c-Met kinase inhibition
T1 construct: His-6 (N); purchased Panvera Lot 40047X; host or cells: Sf9 insect cells (baculovirus), for the His6-MetKin construct scaled up at Pan Vera
T1 sequence (P08581 956-1390 limits assumed): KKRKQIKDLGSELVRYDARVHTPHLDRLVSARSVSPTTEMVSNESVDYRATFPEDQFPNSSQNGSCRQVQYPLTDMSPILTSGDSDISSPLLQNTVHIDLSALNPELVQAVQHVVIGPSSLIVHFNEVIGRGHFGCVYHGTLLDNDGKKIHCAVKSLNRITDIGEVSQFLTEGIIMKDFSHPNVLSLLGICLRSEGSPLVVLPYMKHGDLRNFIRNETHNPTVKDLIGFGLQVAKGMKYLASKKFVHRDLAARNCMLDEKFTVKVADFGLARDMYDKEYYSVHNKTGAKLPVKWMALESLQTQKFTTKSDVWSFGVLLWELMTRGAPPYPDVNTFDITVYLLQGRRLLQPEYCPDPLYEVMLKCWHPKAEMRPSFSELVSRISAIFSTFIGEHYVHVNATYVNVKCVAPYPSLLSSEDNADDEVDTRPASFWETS
Procedure: The present autophosphorylation assay uses radioactive ATP to measure the incorporation of phosphate upon c-Met autophosphorylation. The assay procedure for screening is as follows.
c-Met enzyme (purchased from Panvera, Lot 40047X, 2.4 mg/ml); “Assay buffer” (13.3 mM MOPS pH 7; 0.33 mM EDTA); “Enzyme buffer” (20 mM MOPS pH 7; 1 mM EDTA; 0.01% Brij 35; 5% glycerol; 0.1% beta mercapto-EtOH); 100 mM MgAc; 3% phosphoric acid; 75 mM phosphoric acid; 1 mM ATP-stock; [^33P]-γ-ATP (NEN, NEG602H); round-bottom 96-well plates (Corning, 3799); Filtermat P30-filters (Perkin Elmer); “Enzyme mix” (698.80 μl of Enzyme buffer as above+1.17 μl of c-Met enzyme as above); “Substrate mix” (946.00 μl of 100 mM MgAc+50.00 μl ATP (0.1 mM)+4.00 μl [^33P]-γ-ATP as above).
• 1. Distribute 15 μl assay buffer per well. • 2. Add 0.5 μl dilution of tested c-Met inhibitor (e.g., compound (I) or its forms or salts) in DMSO. • 3. Add 5 μl Enzyme mix per well (control: Enzyme buffer in blanc). • 4. Add 5 μl Substrate mix per well. • 5. Incubate at room temperature for 60 min. • 6. Stop reaction with 3% phosphoric acid, 5 μl per well • 7. Shake plate • 8. Spot 5 μl from a well to filtermat P30. • 9. […] Expose the filter to phosphor storage cassette overnight on low energy phosphor storage plate, and detect and quantify the signal using a suitable phosphorimager (herein, Typhoon) Results

[4] = Water adsorption (hygroscopicity) of salts of compound (I); assay type: physicochemical
Procedure: Free base of compound (I) (3 g; 7.95 mmol) was dissolved in absolute ethanol (40 mL) and heated to 78° C. An acid (HCl 6M in 2-propanol, 2.0 ml (12 mmol); HBr 48% in water, 0.98 mL (8.75 mmol); methane sulphonic acid, 917 mg (9.54 mmol); ethane sulphonic acid, 1.05 g (9.54 mmol) or p-toluene sulphonic acid monohydrate (1.66 g (8.75 mmol)) was added to the hot reaction mixture. The reaction mixture was allowed to cool to room temperature. The resulting precipitate was filtered off, washed with ethanol and dried under vacuum at 60° C.
The obtained solids were analysed by acid titration, Karl-Fisher titration and HPLC. A physical characterisation was performed (DSC, TGA, XRD and IR, DVS).

[5] = Water solubility of salts of compound (I); assay type: physicochemical; details: 24 hours at 20° C.
Procedure: An excess of different salts of compound (I) was agitated with water during 24 hours at 20° C. Following filtration, the concentration of compound (I) in the solution was determined by UV spectrometry.

[6] = Absorption and plasma kinetics after oral administration of salts to rat; details: male, SD, rat, plasma, po
Procedure: Five male SD rats (225±11 g) were used per salt form. From each rat a complete plasma concentration time profile was obtained. Tap water and food were available ad libitum. The test involved salts of compound (I) with HBr, HCl, methanesulphonic acid (mesylate), ethanesulphonic acid (esylate) or p-toluenesulphonic acid (tosylate). The individual salts were dispersed in a 0.5% methocel suspension to a final concentration of 1 mg base eq./ml. The formulations were stored at room temperature.
Administration was oral by gastric intubation: 10 ml/kg to obtain a dose of 10 mg base eq./kg.
Blood samples were collected 30 min, 1, 2, 4, 7 and 24 h after dose administration.
Blood was collected by multiple sampling from a tail vein into Multivette® 600 K3E tubes (Sarstedt). Samples were placed immediately on melting ice and plasma was obtained following centrifugation at 4° C. for 10 minutes at approximately 1900×g. All samples were shielded from daylight and stored at ≦−18° C. prior to analysis.
A limited pharmacokinetic analysis was performed using WinNonlin™ Professional (Version 5.1). A non-compartmental analysis using the lin/log trapezoidal rule with lin/log interpolation was used for all data.

Cn1cc(-c2ccc3nnc(C(F)(F)c4ccc5ncccc5c4)n3n2)cn1 [Compound (I), 6-{difluoro[6-(1-methyl-1H-pyrazol-4-yl)[1,2,4]triazolo[4,3-b]pyridazin-3-yl]methyl}quinoline]
Decrease of mean tumor volume ([1]; 25 mg/kg p.o. (q.d. day 1, b.i.d. to day 12)): 94%
Decrease of mean tumor volume ([1]; 50 mg/kg p.o. (b.i.d. 7 days, 24-hr pause, q.d. to day 12)): 96%
Decrease of mean tumor volume ([1]; 75 mg/kg p.o. (b.i.d. 7 days, 24-hr pause, q.d. to day 12)): 97%
Tumor growth inhibition of U87MG tumors ([1]; p.o. 25, 50 and 75 mg/kg, all doses, p<0.01): statistically significant
Tumor regression ([1]; p.o. 25, 50 and 75 mg/kg, all three doses): Tumor regression was also observed
S114 tumor regression, mice responding [2]: regressed in all five mice
Mice with tumors regressed to non-palpable, non-detectable ([2]; end of study): three of the five mice
Final tumour weights ([2]; individual mice): 0.017 g (2×) and no tumour (3×)
IC50 [3]: ~7.01 nM

Cn1cc(-c2ccc3nnc(C(F)(F)c4ccc5ncccc5c4)n3n2)cn1 [HCl salt]
Hygroscopicity [4]: hygroscopic
Water adsorbed ([4]; dried 1 h at 25° C. under dry nitrogen flow, depending on the atmospheric humidity): up to 11.4%
Measured pH ([5]; saturated solution in water): pH = 1.8
solubility thermodynamic at 24 h ([5]; water, UV spectrometry): 380 µg/mL
concentration at 0.5 h ([6]; 10 mg base eq./kg): 3090 ± 235 ng/mL
concentration at 1 h ([6]; 10 mg base eq./kg): 4210 ± 685 ng/mL
concentration at 2 h ([6]; 10 mg base eq./kg): 4290 ± 803 ng/mL
concentration at 4 h ([6]; 10 mg base eq./kg): 2710 ± 706 ng/mL
concentration at 7 h ([6]; 10 mg base eq./kg): 1940 ± 702 ng/mL
concentration at 24 h ([6]; 10 mg base eq./kg): 56.1 ± 16.6 ng/mL
AUC0-inf ([6]; 10 mg/kg): 29900 ± 7260 ng·h/mL
AUC(0-t) ([6]; 10 mg/kg): 29600 ± 7220 ng·h/mL
Cmax ([6]; 10 mg/kg): 4430 ± 683 ng/mL
Tmax ([6]; 10 mg/kg): 1.6 ± 0.5 h
half-life ([6]; 10 mg/kg): 3.5 ± 0.3 h
IC50 [3]: ~13.2 nM
